Laboratory results: PMC12396409, “Screening and hit evaluation of a microbial metabolite library against the pathogenic Plasmodium falciparum and Toxoplasma gondii parasites” (International Journal for Parasitology: Drugs and Drug …, 2025)
Where two headings read alike, the source gives them in different places.

Key:
[1] = tested on: P. falciparum 3D7 parasites; test: P. falciparum growth inhibition assay, 2-cycle (120 h treatment), delayed-death screen and dose-response; format: cell-based, Plasmodium falciparum; settings: for activity at 2 µg/mL: Plasmodium falciparum, 3D7
[2] = tested on: P. falciparum 3D7 parasites; test: P. falciparum growth inhibition assay, 1-cycle (72 h treatment), SYBR DNA staining (library screen at 2 μg/mL and dose-response); format: cell-based, Plasmodium falciparum; settings: for activity at 2 µg/mL: Plasmodium falciparum, 3D7
[3] = tested on: T. gondii RH strain (RH-Tub-eYFP) tachyzoites; test: microbe, parasite or virus in culture; format: cell-based, Toxoplasma gondii; settings: for Tg_72h_%Growth_Rep1 / Tg_72h_%Growth_Rep2 / percent parasite growth at 2 µg/mL: 72 h; for percent parasite growth at 2 µg/mL: Toxoplasma gondii
[4] = library screen at 2 μg/mL, 120 h, % growth, replicate 1
[5] = library screen at 2 μg/mL, 120 h, % growth, replicate 2
[6] = library screen at 2 μg/mL, 72 h, % growth, replicate 1
[7] = library screen at 2 μg/mL, 72 h, % growth, replicate 2
[8] = library screen at 2 μg/mL, % growth, replicate 1
[9] = library screen at 2 μg/mL, % growth, replicate 2
[10] = P. falciparum, 120 h, screen at 2 μg/mL, replicate 1
[11] = P. falciparum, 120 h, screen at 2 μg/mL, replicate 2
[12] = P. falciparum, 72 h, screen at 2 μg/mL, replicate 1
[13] = P. falciparum, 72 h, screen at 2 μg/mL, replicate 2
[14] = T. gondii, screen at 2 μg/mL, replicate 1
[15] = T. gondii, screen at 2 μg/mL, replicate 2
[16] = active against the parasite at 2 μg/mL, no anti-tumour (NS-1) or cytotoxic (fibroblast) activity at 5 μg/mL

## CCCCCCC(C)C/C(C)=C\C(/C=C(C)/C=C/C(O)C(C)(C)c1cc(O)c([C@@H]2O[C@H](CO)C[C@H](O)[C@H]2O)c(=O)o1)CO (some centres unmarked) [Fusapyrone]
[1]; [4]
  Pf_120h_%Growth_Rep1: 92.76%
[1]; [5]
  Pf_120h_%Growth_Rep2: 105.39%
[2]; [6]
  Pf_72h_%Growth_Rep1: 90.44%
[2]; [7]
  Pf_72h_%Growth_Rep2: 35.77%
[3]; [8]
  Tg_72h_%Growth_Rep1: 113.82%
[3]; [9]
  Tg_72h_%Growth_Rep2: 93.81%

## C=C[C@@](C)(CCC=C(C)C)c1ccc2c3c(c[nH]c13)C[C@@H](CO)NC(=O)[C@H](C(C)C)N2C [Teleocidin A1]
[1]; [10]
  Pf_120h_%Growth_Rep1: 8.14%
[1]; [11]
  Pf_120h_%Growth_Rep2: 11.61%
[2]; [12]
  Pf_72h_%Growth_Rep1: 6.74%
[2]; [13]
  Pf_72h_%Growth_Rep2: -5.43%
[3]; [14]
  Tg_72h_%Growth_Rep1: 75.89%
[3]; [15]
  Tg_72h_%Growth_Rep2: 83.10%

## CC(C)[C@@H]1NC(=O)[C@H](C)OC(=O)[C@@H](C(C)C)NC(=O)[C@@H](C(C)C)OC(=O)[C@H](C(C)C)NC(=O)[C@H](C)OC(=O)[C@@H](C(C)C)NC(=O)[C@@H](C(C)C)OC(=O)[C@H](C(C)C)NC(=O)[C@H](C)OC(=O)[C@@H](C(C)C)NC(=O)[C@@H](C(C)C)OC1=O [Valinomycin]
[1]; P. falciparum, 120 h, screen at 2 μg/mL, replicate 1, read-out: Pf_120h_%Growth_Rep1
  activity at 2 µg/mL: 90.6%
[1]; P. falciparum, 120 h, screen at 2 μg/mL, replicate 2, read-out: Pf_120h_%Growth_Rep2
  activity at 2 µg/mL: 101%
[2]; P. falciparum, 72 h, screen at 2 μg/mL, replicate 1, read-out: Pf_72h_%Growth_Rep1
  activity at 2 µg/mL: 81%
[2]; P. falciparum, 72 h, screen at 2 μg/mL, replicate 2, read-out: Pf_72h_%Growth_Rep2
  activity at 2 µg/mL: 123%
[3]; T. gondii, screen at 2 μg/mL, replicate 1, read-out: Tg_72h_%Growth_Rep1
  percent parasite growth at 2 µg/mL: 122%
[3]; T. gondii, screen at 2 μg/mL, replicate 2, read-out: Tg_72h_%Growth_Rep2
  percent parasite growth at 2 µg/mL: 85.6%

## CC=C(C)c1c(Cl)c(OC)c(C)c2c1Oc1c(Cl)c(O)c(Cl)c(C)c1C(=O)O2 [BIA-N1157]
[1]; P. falciparum 3D7, 120 h, parasite screen at 2 μg/mL, % growth, replicate 1
  Pf_120h_%Growth_Rep1: 89.90%
[1]; P. falciparum 3D7, 120 h, parasite screen at 2 μg/mL, % growth, replicate 2
  Pf_120h_%Growth_Rep2: 141.00%
[2]; P. falciparum 3D7, 72 h, parasite screen at 2 μg/mL, % growth, replicate 1
  Pf_72h_%Growth_Rep1: 86.70%
[2]; P. falciparum 3D7, 72 h, parasite screen at 2 μg/mL, % growth, replicate 2
  Pf_72h_%Growth_Rep2: 91.20%
[3]; T. gondii, parasite screen at 2 μg/mL, % growth, replicate 1
  Tg_72h_%Growth_Rep1: 96.79%
[3]; T. gondii, parasite screen at 2 μg/mL, % growth, replicate 2
  Tg_72h_%Growth_Rep2: 78.56%

## CC[C@H](C)[C@H]1O[C@]2(C=C[C@@H]1C)C[C@@H]1C[C@@H](C/C=C(\C)[C@@H](O[C@H]3C[C@H](OC)[C@@H](O)[C@H](C)O3)[C@@H](C)/C=C/C=C3\CO[C@@H]4[C@H](O)C(C)=C[C@@H](C(=O)O1)[C@]34O)O2 [Avermectin B1a monosaccharide]
[1]; [4]
  Pf_120h_%Growth_Rep1: 24.77%
[1]; [5]
  Pf_120h_%Growth_Rep2: 20.49%
[2]; [6]
  Pf_72h_%Growth_Rep1: 47.44%
[2]; [7]
  Pf_72h_%Growth_Rep2: 32.72%
[3]; [8]
  Tg_72h_%Growth_Rep1: 153.46%
[3]; [9]
  Tg_72h_%Growth_Rep2: 93.98%

## C=C1[C@@H](C)[C@H]2[C@H](Cc3ccccc3)NC(=O)[C@]23[C@H](O)/C=C/[C@](C)(O)C[C@@H](C)C/C=C/[C@H]3[C@@H]1O [cytochalasin J]
[1]; [10]
  Pf_120h_%Growth_Rep1: 0.52%
[1]; [11]
  Pf_120h_%Growth_Rep2: -0.13%
[2]; [12]
  Pf_72h_%Growth_Rep1: 6.03%
[2]; [13]
  Pf_72h_%Growth_Rep2: 6.00%
[2]; [16]
  selectivity for P. falciparum in the screens: active selectively against P. falciparum and T. gondii
[3]; [14]
  Tg_72h_%Growth_Rep1: 4.83%
[3]; [15]
  Tg_72h_%Growth_Rep2: 6.80%
[3]; [16]
  selectivity for T. gondii in the screens: active selectively against P. falciparum and T. gondii

## CC[C@H]1OC(=O)[C@H](C)[C@@H](O[C@H]2C[C@@](C)(OC)[C@@H](O)[C@H](C)O2)[C@H](C)[C@@H](O[C@@H]2O[C@H](C)C[C@H](N(C)C)[C@H]2O)[C@](C)(O)C[C@@H](C)C(=O)[C@H](C)[C@H]2OC(=O)O[C@@]21C [Davercin, reference compound]
[1]; P. falciparum, 2 μg/mL, 120 h
  2) Growth (%) at 120 h: 13.05%
[1]; [10]
  Pf_120h_%Growth_Rep1: 17.41%
[1]; [11]
  Pf_120h_%Growth_Rep2: 8.68%
[1]; P. falciparum, growth at 72 h / growth at 120 h, 2 μg/mL
  3) Fold change (72 h/120 h): 4.8
[2]; P. falciparum, 2 μg/mL, 72 h
  1) Growth (%) at 72 h: 62.94%
[2]; [12]
  Pf_72h_%Growth_Rep1: 70.33%
[2]; [13]
  Pf_72h_%Growth_Rep2: 55.54%
[3]; [14]
  Tg_72h_%Growth_Rep1: 45.64%
[3]; [15]
  Tg_72h_%Growth_Rep2: 28.61%

## C/C=C/[C@@H]1C=C[C@@H]2C[C@H](C)CC[C@H]2[C@]1(C)/C(O)=C1/C(=O)[C@H](CO)N(C)C1=O [Equisetin]
[1]; [4]
  Pf_120h_%Growth_Rep1: 83.53%
[1]; [5]
  Pf_120h_%Growth_Rep2: 117.48%
[2]; [6]
  Pf_72h_%Growth_Rep1: 83.58%
[2]; [7]
  Pf_72h_%Growth_Rep2: 91.13%
[3]; [8]
  Tg_72h_%Growth_Rep1: 89.36%
[3]; [9]
  Tg_72h_%Growth_Rep2: 86.41%

## O=C1CCCC2C3CC(CN12)C1CCCCN1C3 (centres unmarked) [BIA-L1951]
[1]; P. falciparum 3D7, 120 h, library screen at 2 μg/mL, % growth, replicate 1
  Pf_120h_%Growth_Rep1: 173.37%
[1]; P. falciparum 3D7, 120 h, library screen at 2 μg/mL, % growth, replicate 2
  Pf_120h_%Growth_Rep2: 101.50%
[2]; P. falciparum 3D7, 72 h, library screen at 2 μg/mL, % growth, replicate 1
  Pf_72h_%Growth_Rep1: 95.10%
[2]; P. falciparum 3D7, 72 h, library screen at 2 μg/mL, % growth, replicate 2
  Pf_72h_%Growth_Rep2: 93.40%
[3]; T. gondii RH, library screen at 2 μg/mL, % growth, replicate 1
  Tg_72h_%Growth_Rep1: 86.61%
[3]; T. gondii RH, library screen at 2 μg/mL, % growth, replicate 2
  Tg_72h_%Growth_Rep2: 107.54%
